Measured values published in article PMC8328489, “Automated Synthesis and Initial Evaluation of (4′-Amino-5′,8′-difluoro-1′H-spiro[piperidine-4,2′-quinazolin]-1-yl)(4-[^18F]fluorophenyl)methanone for PET/MR Imaging of Inducible Nitric Oxide Synthase” (Molecular Imaging, 2021).

What was measured:
[1] = Radiolabeled metabolites in blood plasma (radio-HPLC); type: in vivo, Sprague-Dawley rats; settings: rat, i.v.
Procedure: Adult Sprague-Dawley rats (n = 3) were anesthetized with 2% isoflurane (in oxygen) and injected with 194.87 MBq ± 22.61 MBq of [^18F]FBAT in the tail vein. Plasma was extracted from heparinized blood samples (0.25 mL) with 3x volumes of acetonitrile and analyzed with radio-HPLC; mobile phase: 40% MeCN/0.10% TEA in water at 1 mL/min. This method affords retention time of [^18F]FBAT which was 18.1–18.9 min. Fractions of [^18F]FBAT and metabolites were calculated for each sample based on the area under each peak. The radioactivity concentration in the whole blood and plasma was assayed using a gamma counter (Cobra, Packard, CT).

[2] = Whole-body dynamic PET/MR biodistribution and blood clearance; type: in vivo, C57BL/6 mice
Procedure: Mice (n = 30) were anesthetized with 2% isoflurane (in oxygen) and injected with [^18F]FBAT (11.1 MBq; 0.3 mCi) via the tail vein. Dynamic PET images were obtained in fully three-dimensional list mode for 30 min using a small animal SuperArgus 2r PET system (SEDECAL, Madrid, Spain) or 7T PETMR Inline (Bruker, Rheinstetten, Germany; energy window, 350-650 keV; timing window, 6 ns). Images were acquired every 10 s for 12 images, 60 s for three images, 300 s for three images, or 600 s for […]. The anatomical structure of the brain was imaged using T2 MRI. The MRI sequences included 0.5 mm thick T2 Turbo RARE high-resolution images (TR = 3000 ms, TE, 46 ms, matrix, 512 × 256, average, 40, slice number, 30, field of view, 20 × 10 mm).
Images were reconstructed by the Fourier rebinning algorithm and two-dimensional filtered back projection using a ramp filter with a cutoff at Nyquist. The regional radioactivity concentration (kBq/cc) of [^18F]FBAT was estimated from the mean pixel values within the region of interest (ROI) corresponding to MR images of various organs and regions of the brain. ROI for carotid artery, heart muscle, lung, liver, spleen, and kidney were defined and time activity curves (TACs) generated. TACs for whole brain, cortex, cerebellum, and brainstem were also determined as described above.
The concentration of radioactivity (kBq/cc, μCi/cc) was converted to standardized uptake value (SUV), and the mean and standard deviation (SD) of radiotracer accumulation values were calculated for different organs and regions of the brain. Data were analyzed with PMOD 4.0 software (PMOD Technologies Ltd., Zurich, Switzerland).

iNOS [3] = target: T1, iNOS (Mus musculus, UniProt P29477); test: Logan graphical analysis of dynamic PET (Vt); type: in vivo, C57BL/6 mice
T1 construct: tracer to detect iNOS expression in mice injected with lipopolysaccharide (LPS) to induce brain inflammation; from tissue; host or cells: brain of living C57BL/6 mice (LPS-induced); fixed brain sections for IHC
Procedure: The dynamic PET imaging data were analyzed using Logan's model-independent graphical analysis to assess whether [^18F]FBAT PET/MR could be used to detect differences in expression of iNOS in brain regions (Cbra(t)). Cardiac blood TACs (Cref(t)) were used as the reference tissue. The slope of the linear portion of the Logan plot represents the total distribution (Vt). Then, the slope of the linear portion of the plot can be calculated using (1) ∫0tCreferencetdt/CreferenceT=DVR∫0tCbrain regiontdt/CreferenceT+C.

iNOS [4] = target: T1, iNOS; test: Pharmacokinetic two-compartment modeling of dynamic PET; type: in vivo, C57BL/6 mice; settings: mouse whole brain
Excerpt: A time activity curve (TAC) for a carotid artery region of interest was used to determine the dynamic PET image-derived [^18F]FBAT input function in uncorrected blood plasma. The corresponding TACs for [^18F]FBAT were derived by applying images from mice administered [^18F]FBAT to the image-derived plasma TAC. Model parameters were estimated for influx constant k1 (mL/cm^3/min^−1), efflux (k2) (min^−1) rate of radioligand diffusion between plasma and brain compartment. Exchange between compartments k3 (min^−1) and k4 (min^−1) was also estimated. The net influx constant, Ki (min^−1), parameter that describes the rate of binding to the iNOS was calculated as (2) KiFBAT=k1FBAT×k3FBAT/k2FBAT+k3FBAT.
Compartmental modeling, pharmacokinetic analyses, and generation of pixel-by-pixel parametric images were accomplished using PMOD 4.0 software (PMOD Technologies Ltd., Zurich, Switzerland).

metabolites fraction in plasma ([1]; 120 min after injection): ~94.02%
parent compound fraction in plasma ([1]; first 5 minutes): 77.98%
level of [^18F]FBAT in blood (carotid ROI) ([2]; 30 min post i.v. injection, brain imaging study): 0.30 ± 0.06 SUV
radioactivity remaining in the blood pool ([2]; 30 min postinjection, whole-body biodistribution study): 0.298 ± 0.019 SUV
time of peak radioactivity in heart muscle ([2]; after injection): ≤ 1 min
blood clearance half-life, first phase (biexponential) ([2]; carotid, i.v.): 1.05 ± 0.58 min
blood clearance half-life, second phase (biexponential) ([2]; carotid, i.v.): 24.9 ± 7.46 min
time of peak accumulation in the lungs ([2]; postinjection): 1 to 2 min
accumulation of radioactivity in skeletal structures ([2]; up to 30 min postinjection): No accumulation
volume distribution Vt, brainstem (iNOS [3]; LPS 3 h): 0.435 ± 0.040^∗ mL/cm^3
volume distribution Vt, cerebellum (iNOS [3]; LPS 3 h): 0.385 ± 0.016^∗∗ mL/cm^3
volume distribution Vt, cortex (iNOS [3]; LPS 3 h): 0.391 ± 0.020^∗ mL/cm^3
volume distribution Vt, whole brain (iNOS [3]; LPS 3 h): 0.404 ± 0.003 mL/cm^3
volume distribution Vt, brainstem (iNOS [3]; LPS 3 h + AMG): 0.223 ± 0.036 mL/cm^3
volume distribution Vt, cerebellum (iNOS [3]; LPS 3 h + AMG): 0.250 ± 0.055 mL/cm^3
volume distribution Vt, cortex (iNOS [3]; LPS 3 h + AMG): 0.222 ± 0.024 mL/cm^3
volume distribution Vt, whole brain (iNOS [3]; LPS 3 h + AMG): 0.203 ± 0.032 mL/cm^3
volume distribution Vt, brainstem (iNOS [3]; LPS 24 h): 0.315 ± 0.065 mL/cm^3
volume distribution Vt, cerebellum (iNOS [3]; LPS 24 h): 0.288 ± 0.090 mL/cm^3
volume distribution Vt, cortex (iNOS [3]; LPS 24 h): 0.264 ± 0.036^∗ mL/cm^3
volume distribution Vt, whole brain (iNOS [3]; LPS 24 h): 0.274 ± 0.068 mL/cm^3
average volume distribution Vt in brain regions (iNOS [3]; LPS group (implied), blood as reference tissue): 0.40 ± 0.02 mL/cm^3
Vt in the brain regions (iNOS [3]; control animals): 0.29 ± 0.05 mL/cm^3
volume distribution Vt, brainstem (iNOS [3]; control mice): 0.295 ± 0.026 mL/cm^3
volume distribution Vt, cerebellum (iNOS [3]; control mice): 0.227 ± 0.001 mL/cm^3
volume distribution Vt, cortex (iNOS [3]; control mice): 0.278 ± 0.006 mL/cm^3
volume distribution Vt, whole brain (iNOS [3]; control mice): 0.346 ± 0.012 mL/cm^3
Vt, 3 h LPS group vs control group (iNOS [3]; whole brain, average): 1.4 ± 0.22 fold
k1 (influx rate constant) (iNOS [4]; LPS 5 mg/kg): 0.633 ± 0.002 min⁻¹
k2 (efflux rate constant) (iNOS [4]; LPS 5 mg/kg): 0.608 ± 0.054 min⁻¹
k3 (iNOS [4]; LPS 5 mg/kg): 0.006 ± 0.003^∗ min^−1
k1 (influx rate constant) (iNOS [4]; control): 0.957 ± 0.250 min⁻¹
k2 (efflux rate constant) (iNOS [4]; control): 0.777 ± 0.101 min⁻¹
k3 (iNOS [4]; control): 2.86E − 05 ± 4.48E − 05 min^−1
SMILES: NC1=NC2(CCN(C(=O)c3ccc([18F])cc3)CC2)Nc2c(F)ccc(F)c21 [[^18F]FBAT, (4′-amino-5′,8′-difluoro-1′H-spiro[piperidine-4,2′-quinazolin]-1-yl)(4-[^18F]fluorophenyl)methanone]
